Laboratory results reported in paper PMC4431585, “Identification and Characterization of a Small-Molecule Inhibitor of Death-Associated Protein Kinase 1” (Chembiochem, 2014).
Entries after “also recorded” stand apart in the source; their conditions may differ.

Key:
DAPK1 [1] = molecular target: T1, DAPK1 (Homo sapiens, UniProt P53355); assay: In vitro phosphorylation assay with DAPK1 (analytical HPLC); type: biochemical; settings: for phosphorylation by DAPK1 (peptide as substrate): peptide 50 μM, ATP 100 μM, n=3
T1 construct: First the catalytic domain of DAPK1 (residues 1–285) was cloned,[14] expressed in Escherichia coli, and purified; made in house; host or cells: Escherichia coli
T1 sequence (P53355 1-285): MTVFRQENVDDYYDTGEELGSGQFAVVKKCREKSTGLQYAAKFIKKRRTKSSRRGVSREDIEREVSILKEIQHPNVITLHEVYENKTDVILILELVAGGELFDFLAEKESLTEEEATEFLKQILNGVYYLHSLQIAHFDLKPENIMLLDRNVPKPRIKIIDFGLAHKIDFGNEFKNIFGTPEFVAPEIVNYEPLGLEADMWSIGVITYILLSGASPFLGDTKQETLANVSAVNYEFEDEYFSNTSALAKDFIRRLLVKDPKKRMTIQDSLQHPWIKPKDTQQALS
Source text: CaMKII and DAPK1 share a number of notable structural and functional properties. In particular both kinases harbor a calmodulin-binding sequence and an autoregulatory domain (ARD) next to the catalytic domain and are therefore regulated by calmodulin (or proteins with calmodulin-like domains).[10] There are also notable differences between the two kinases, for example DAPK1 is active only in its non-phosphorylated form,[11] whereas activation of CaMKII is more complex.[12] […] Thus it is proposed that phosphorylation of Ser1303 and co-localization are responsible for the regulation of calcium influx by NMDA receptors (Figure 1). To investigate the mechanistic details of DAPK1/NMDA receptor interactions further, including differences between GluN2A and GluN2B, we used in vitro phosphorylation assays. First the catalytic domain of DAPK1 (residues 1–285) was cloned,[14] expressed in Escherichia coli, and purified; the reference substrate Peptide38[2d] ([…]) and the 13-mer peptide N2B13 (1, GluN2B1292–1304, […]; Figure 2 A) were prepared. […] Thus, clearly Ser1303 in 1 is not phosphorylated by DAPK1 in vitro.
(§1) Figure 2 Comparison of peptide substrates containing Ser1303 (GluN2B) or Ser1291 (GluN2A). A) Alignment of peptides used in in vitro phosphorylation studies. B) Phosphorylation by DAPK1. C) Phosphorylation by CaMKII. Control substrates are shown with dashed lines. Degrees of phosphorylation were assessed by analytical HPLC (n=3, mean±SD). Concentration: peptide 50 μM, ATP 100 μM, kinase concentration was adjusted to fit the timescale. For further details see the Supporting Information.
(§2) This prompted us to examine related peptides derived from GluN2B and GluN2A (Figure 2 A) and we compared in vitro phosphorylation of these peptides by using both recombinant DAPK1 and CaMKII. […] Next we studied the corresponding 13- and 23-mer GluN2A peptides, N2A13 (4, GluN2A1280–1292, […]) and N2A23 (5, GluN2A1280–1302, […]); for both, Ser1291 corresponds to Ser1303 in GluN2B.

CAMKII [2] = assay: In vitro phosphorylation assay with CaMKII (analytical HPLC); type: biochemical; settings: peptide 50 μM, ATP 100 μM, n=3
Description: as §1, §2

DAPK1 [3] = molecular target: T1, DAPK1; assay: Caliper microfluidics capillary electrophoresis high-throughput enzymatic assay for DAPK1; type: biochemical
Source text: For this, we established a high-throughput enzymatic screening assay for DAPK1. […] This peptide was used in a Caliper microfluidics capillary electrophoresis assay, which separates phosphorylated peptide product from the non-phosphorylated peptides in microcapillaries. The fluorescently labeled peptide enabled quantification in real time and thus determination of reaction velocities.

PIM1 = PIM1 (Homo sapiens, UniProt P11309); assay: Kinase selectivity screening, PIM1; type: biochemical
Sequence of PIM1 (P11309 whole entry, species assumed): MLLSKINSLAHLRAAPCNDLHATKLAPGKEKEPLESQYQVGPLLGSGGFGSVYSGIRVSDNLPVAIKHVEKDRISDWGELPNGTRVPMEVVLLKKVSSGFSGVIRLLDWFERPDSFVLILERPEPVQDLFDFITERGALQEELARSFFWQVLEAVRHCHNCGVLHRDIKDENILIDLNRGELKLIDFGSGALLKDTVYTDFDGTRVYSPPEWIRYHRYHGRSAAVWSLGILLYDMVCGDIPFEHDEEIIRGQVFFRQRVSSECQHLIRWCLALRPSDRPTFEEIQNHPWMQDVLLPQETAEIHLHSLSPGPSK
Description: (§3) Compound 6 was tested in primary screening against a number of other kinases (SRC, BLK, AKT3, JAK2, PAK4, PAK7, PIM1, PIM2, CAMKI, and CAMKII); 60 % inhibition at 10 μM compound was used as the cut-off limit. […] Thus 6 was clearly an interesting compound.

JAK2 = JAK2 (Homo sapiens, UniProt O60674); assay: Kinase selectivity screening, JAK2; type: biochemical
Sequence of JAK2 (O60674 whole entry, species assumed): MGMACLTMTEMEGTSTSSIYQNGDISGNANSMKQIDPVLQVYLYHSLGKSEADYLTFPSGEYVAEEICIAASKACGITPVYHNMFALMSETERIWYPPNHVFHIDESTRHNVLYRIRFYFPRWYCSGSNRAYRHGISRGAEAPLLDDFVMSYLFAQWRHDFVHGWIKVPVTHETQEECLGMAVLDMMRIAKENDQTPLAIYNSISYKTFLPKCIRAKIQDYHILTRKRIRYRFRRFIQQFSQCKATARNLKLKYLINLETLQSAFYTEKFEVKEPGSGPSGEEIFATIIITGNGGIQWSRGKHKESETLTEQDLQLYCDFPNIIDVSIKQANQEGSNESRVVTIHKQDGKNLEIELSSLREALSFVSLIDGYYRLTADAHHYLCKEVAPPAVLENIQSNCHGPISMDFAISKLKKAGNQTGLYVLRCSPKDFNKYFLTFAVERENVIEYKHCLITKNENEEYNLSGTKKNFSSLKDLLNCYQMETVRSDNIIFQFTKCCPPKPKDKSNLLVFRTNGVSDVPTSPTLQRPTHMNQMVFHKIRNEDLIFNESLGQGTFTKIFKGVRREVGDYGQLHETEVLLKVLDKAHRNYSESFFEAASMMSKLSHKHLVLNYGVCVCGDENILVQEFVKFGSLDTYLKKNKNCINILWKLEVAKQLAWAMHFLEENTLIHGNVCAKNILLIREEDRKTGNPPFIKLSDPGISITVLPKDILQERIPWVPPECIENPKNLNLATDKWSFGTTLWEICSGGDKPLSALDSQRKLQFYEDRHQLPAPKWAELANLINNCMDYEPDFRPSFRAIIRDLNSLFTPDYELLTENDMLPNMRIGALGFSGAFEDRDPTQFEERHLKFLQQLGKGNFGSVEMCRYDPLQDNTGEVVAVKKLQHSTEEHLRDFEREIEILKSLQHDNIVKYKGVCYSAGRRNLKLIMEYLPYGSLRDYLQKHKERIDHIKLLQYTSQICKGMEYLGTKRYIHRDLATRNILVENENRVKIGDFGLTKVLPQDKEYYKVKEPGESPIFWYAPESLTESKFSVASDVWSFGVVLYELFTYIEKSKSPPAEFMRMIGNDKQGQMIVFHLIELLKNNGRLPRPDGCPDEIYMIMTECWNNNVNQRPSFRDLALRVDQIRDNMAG
Description: as §3

PAK7 = PAK7 (Homo sapiens, UniProt Q9P286); assay: Kinase selectivity screening, PAK7; type: biochemical
Sequence of PAK7 (Q9P286 whole entry, species assumed): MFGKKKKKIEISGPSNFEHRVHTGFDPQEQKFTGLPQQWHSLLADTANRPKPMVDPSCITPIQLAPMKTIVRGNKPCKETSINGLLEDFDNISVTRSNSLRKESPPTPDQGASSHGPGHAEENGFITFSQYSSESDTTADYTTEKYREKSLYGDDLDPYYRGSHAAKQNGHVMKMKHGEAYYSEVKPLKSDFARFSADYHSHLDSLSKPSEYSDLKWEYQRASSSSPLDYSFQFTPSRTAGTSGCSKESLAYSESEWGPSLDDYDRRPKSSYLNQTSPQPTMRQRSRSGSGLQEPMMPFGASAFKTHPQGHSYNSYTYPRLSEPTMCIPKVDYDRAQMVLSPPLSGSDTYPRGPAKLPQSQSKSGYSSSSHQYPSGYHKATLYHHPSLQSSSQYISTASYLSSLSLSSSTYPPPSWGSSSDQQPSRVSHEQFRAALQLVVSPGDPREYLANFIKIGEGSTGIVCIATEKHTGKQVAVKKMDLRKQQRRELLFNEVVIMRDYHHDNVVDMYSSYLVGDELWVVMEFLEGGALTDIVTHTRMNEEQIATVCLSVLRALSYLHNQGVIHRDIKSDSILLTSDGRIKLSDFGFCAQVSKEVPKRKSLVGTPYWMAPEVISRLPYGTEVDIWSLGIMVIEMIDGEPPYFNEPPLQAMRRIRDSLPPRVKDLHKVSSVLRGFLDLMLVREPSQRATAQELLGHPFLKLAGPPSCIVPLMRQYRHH
Description: as §3

SRC = SRC (Homo sapiens, UniProt P12931); assay: Kinase selectivity screening, SRC; type: biochemical
Sequence of SRC (P12931 whole entry, species assumed): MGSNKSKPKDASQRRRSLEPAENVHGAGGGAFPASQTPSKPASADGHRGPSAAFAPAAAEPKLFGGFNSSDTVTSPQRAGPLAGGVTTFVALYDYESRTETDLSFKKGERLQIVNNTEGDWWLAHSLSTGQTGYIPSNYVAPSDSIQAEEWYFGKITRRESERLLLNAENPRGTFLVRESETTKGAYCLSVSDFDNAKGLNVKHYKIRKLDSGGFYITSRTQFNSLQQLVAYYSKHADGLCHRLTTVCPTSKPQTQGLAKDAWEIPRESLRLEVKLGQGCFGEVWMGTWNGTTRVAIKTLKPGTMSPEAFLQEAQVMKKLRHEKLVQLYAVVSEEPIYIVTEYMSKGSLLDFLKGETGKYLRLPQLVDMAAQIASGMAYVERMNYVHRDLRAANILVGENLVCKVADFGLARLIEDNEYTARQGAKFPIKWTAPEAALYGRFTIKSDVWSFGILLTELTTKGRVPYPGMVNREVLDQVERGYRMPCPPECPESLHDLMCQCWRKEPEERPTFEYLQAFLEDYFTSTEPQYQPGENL
Description: as §3

CAMKII [4] = assay: Kinase selectivity primary screening, CAMKII; type: biochemical; settings: 60 % inhibition at 10 μM compound as cut-off limit
Description: as §3

[5] = molecular target: T2, catalytic domain of DAPK1 (residues 1–285) (Homo sapiens, UniProt P53355); assay: Isothermal titration calorimetry (ITC); type: binding; settings: n=4, read-out: equilibrium dissociation constant (Kd)
T2 construct: First the catalytic domain of DAPK1 (residues 1–285) was cloned,[14] expressed in Escherichia coli, and purified; made in house; host or cells: Escherichia coli
T2 sequence (P53355 1-285): as the sequence (P53355 1-285) above
Description: as §3
Figure 3 Representative ITC of the catalytic domain of DAPK1 (residues 1–285) into 6.

Molecule | phosphorylation by DAPK1 (peptide as substrate) (DAPK1 [1]) | phosphorylation by CaMKII (peptide as substrate) (CAMKII [2]) | further results
KKNRNKLRQHSY [Peptide 1, 13-mer peptide N2B13, GluN2B1292–1304] | strongly repressed | phosphorylated in a similar manner | inhibitory effect on phosphorylation of peptide 2 (DAPK1 [1]; DAPK1, in vitro, data not shown): no in vitro inhibitory effect; also recorded: did not observe any effect
KKNRKKNRNKLRRQHSYDTFVDLQKEE [Peptide 2, 23-mer GluN2B peptide with ten additional C-terminal amino acids] | phosphorylation to a degree similar to that for the reference substrate | neither the longer GluN2B peptide, N2B23 (2), nor its Ala mutant, 3, was phosphorylated | 
QKNKLRISRQHSY [Peptide 4, 13-mer GluN2A peptide] | none of these peptides was phosphorylated | phosphorylated at a similar rate and to the same degree as the control peptide | 
KKNRKKNRNKLRRQHAYDTFVDLQKEE [Peptide 3, N2B23 with Ser1303 substituted with Ala] | prevented phosphorylation | neither the longer GluN2B peptide, N2B23 (2), nor its Ala mutant, 3, was phosphorylated | 
Nc1ncnc2c1ncn2[C@@H]1O[C@H](COP(=O)(O)OP(=O)(O)OP(=O)(O)O)[C@@H](O)[C@H]1O [ATP] |  |  | Km (DAPK1 [3]; DAPK1, read-out: Km for ATP): 1.24 µM
COc1cc(-c2ccc3ncc(-c4cccc(C(=O)NCCN(C)C)c4)n3n2)ccc1O [Compound 6] |  |  | IC50 (DAPK1 [3]; DAPK1, Caliper assay, 5FAM-Peptide38 substrate, ATP approximately 2×Km): 0.247 µM; IC50 (PIM1): 1.6 µM; IC50 (JAK2): 1.8 µM; IC50 (PAK7): 5.6 µM; IC50 (SRC): 0.15 µM; primary screening (CAMKII [4]): did not to pass the primary screening; Kd [5]: 0.24 ± 0.09 µM; inhibition in the in vitro phosphorylation assay (DAPK1 [1]; DAPK1): showed inhibition
QKNKLRISRQHSYDNIVDKPREL [Peptide 5, 23-mer GluN2A peptide] | none of these peptides was phosphorylated | phosphorylated at a similar rate and to the same degree as the control peptide | 
KKRPQRRYSNVF [peptide38, reference compound] | excellent substrate |  | 
